Where “and” joins values, the source holds several entries; their conditions need not be identical. Identical values can stand only once. Like-named read-outs stand apart in the source and are kept apart here.
Assays:
[1] = tested on: fowl roundworm (As. galli); test: Anthelmintic test in chickens artificially infected with fowl roundworm, compound added to feed, E.P.G. and worm count up to 21st day (Test Examples A2, B2, C2, D2); type: in vivo, Ascaridia galli; settings: Ascaridia galli, 504 h, read-out: Anthelmintic effect; for inhibition in vivo at 10 ppm: 10 ppm added to feed
Procedure: Chickens artificially infected with fowl roundworm (As. galli) were employed in groups each of two chickens.
Fecal matter testing was conducted before initiation of the test and on the 7th, 14th and 21st day after initiation of the test. Reduction in worm egg number was examined by calculating E.P.G. (worm eggs per 1 g of fecal matter), and the number of discharged worm bodies and the number of worm bodies remaining in the enteron when the chicken was killed on 21st day were counted to determine the anthelmintic percentage, from which the anthelmintic effect was judged.

[2] = tested on: swine Oesophagostomum (Oesophagostomum dentatum); test: Test of anthelmintic effect against swine Oesophagostomum in naturally infected pigs, E.P.G. on 7th day (Test Examples A8, B8, C8, D8); type: in vivo; settings: for Change of E.P.G. 7th day / Change of E.P.G. Before administration: pig, Oesophagostomum dentatum; for Change of E.P.G. 7th day: 20 mg/Kg, one administration; for Change of E.P.G. Before administration: before 20 mg/Kg (baseline); for anthelmintic effect: pigs, one administration of 20 mg/Kg
Procedure: Six pigs infected with swine Oesophagostomum (naturally infected pigs) were employed by grouping them into groups each of two pigs.
As a control, only gelatin capsules were administered orally to the two pigs.
Before administration and on the 7th day after administration, fecal matter testing was conducted to calculate the E.P.G., and the anthelmintic effect was judged by the changing of the E.P.G. to negative.

[3] = tested on: fowl roundworm (Ascaridia galli); test: Anthelmintic test in chickens artificially infected with fowl roundworm, single oral dose in gelatin capsule, worm bodies counted within 48 hours (Test Examples A1, B1, C1, D1); type: in vivo; settings: Ascaridia galli, po, 48 h, read-out: Anthelmintic effect after 48 hours; for inhibition in vivo at 30 mg/kg: chicken, 30 mg/Kg oral in gelatin capsule, chickens No.1-3
Procedure: Chickens infected artificially with fowl roundworm (Ascaridia galli) were employed in groups each consisting of three chickens. Fecal matter testing was conducted before administration of medicine to confirm infection with the worm. The quantity of the compound provided for testing was 10 mg and 20 mg per Kg of body weight, which was orally administered each in a gelatin capsule to the chicken. The number of worm bodies discharged within 48 hours after administration of medicine was counted, the chicken was killed after 48 hours and the number of worm bodies remaining in the enteron was counted to determine the anthelmintic percentage, wherefrom the antihelmintic effect was judged.
The same as that in Test Example Al.
The same as that in Test Example Al except that the compound provided for testing was in quantities of 30 mg and 50 mg per Kg of body weight, which were orally administered to the chickens in gelatin capsules.
The same as that in Test Example Al, except that the compounds provided for testing were used in quantities of 15 mg and 30 mg per Kg of body weight, which were orally administered each in a gelatin capsule to the chicken.

[4] = tested on: Liver fluke; Fasciola hepatica (F. hepatica); test: Test of anthelmintic effect against rat infected experimentally with liver fluke (Test Examples A11, B11, C11, D11); type: in vivo; design: key to Presence or absence of fluke egg in fecal matter On 21st day after the last administration: +: indicates detection of fluke egg; -: indicates no detection; settings: rats, 50 mg/Kg x 5 orally, one value per rat; for Condition of fluke body: autopsy, liver, "Denatured" = fluke body is alive but a part of fluke body has changed
Source text: Twenty-eight (28) rats were employed in fourteen groups each of two rats, each rat being infected with 5 metacercariae of Liver fluke; Fasciola he^patica (F.. hepatica) and confirmed to have worm eggs on the 75th day after infection according to fecal matter testing.
Judgement of the effect was made by the presence or absence of the worm gees in the fecal matter on the 21st day after the last administration and by examination according to autopsis as to whether the worm bodies were dead or alive in the liver.
The same as that in Test Example All, but eight (8) rats were employed by grouping them into groups each of two rats, each rat being infected with 5 metacercariae of liver fluke and confirmed to have fluke eggs on the 75th day after infection according to fecal matter testing.
The compounds provided for the tests were Compound Nos. Bl, B8 and B19.
The same as that in Test Example All, but six (6) rats were employed by grouping them into groups each of two rats, each rat being infected with 5 metacercariae of Fasciola hepatica and confirmed to have worm eggs on the 75th day after infection according to fecal matter testing.
The compounds provided for the tests were Compound Nos. C2 and C6.
The same as that in Test Example All, but the compounds provided for tests were Compound Nos. D14, D15 and D16.

[5] = tested on: fowl roundworm (As. galli); test: Anthelmintic test in chickens infected with fowl roundworm, single oral dose of 40 mg per Kg, worm bodies counted within 24 hours (Test Example E1); type: in vivo, Ascaridia galli; settings: 40 mg per Kg oral in gelatin capsule; for inhibition in vivo at 40 mg/kg: Ascaridia galli, 24 h, chicken No.1, read-out: Anthelmintic effect after one day
Procedure: Chickens infected with fowl roundworm (As. galli) were employed in groups each consisting of five chickens. The compound provided for testing was orally administered in a quantity of 40 mg per Kg of body weight to each chicken in a gelatin capsule. The number of worm bodies discharged within 24 hours after administration of the medicine was counted. Then the chicken was killed, and the number of worm bodies remaining in the enteron was counted to determine the anthelmintic percentage, wherefrom the anthelmintic effect was judged.

[6] = tested on: fowl roundworm (As. galli); test: Anthelmintic test in chickens infected with fowl roundworm, compound added to feed at 250 ppm and 1,000 ppm, E.P.G. and worm count on 5th day (Test Example E2); type: in vivo, Ascaridia galli; settings: for E.P.G. after 5 days: worm egg number in 1 g of fecal matter; for anthelmintic effect / inhibition in vivo at 250 ppm / inhibition in vivo at 1000 ppm: 5th day; for inhibition in vivo at 250 ppm / inhibition in vivo at 1000 ppm: Ascaridia galli, feed or water, 120 h, read-out: Anthelmintic effect
Procedure: Chickens infected with fowl roundworm (As. galli) were employed in groups each of two chickens.
The compound provided for the test was dissolved in a small amount of ethyl alcohol and adsorbed on defatted rice bran and added to chicken feed at levels of 250 ppm and 1,000 ppm. As control, a feed containing no such compound was employed.
Fecal matter testing was conducted before initiation of the test and on the 5th day after initiation of the test. The reduction in worm egg count was examined by calculating the E.P.G. (worm egg number in 1 g of fecal matter). The number of discharged worm bodies and the number of worm bodies remaining in the enteron when the chicken was killed on 5th day were counted to determined the anthelmintic percentage, from which the anthelmintic effect was judged.

[7] = po, chickens, worm count on 21st day, one value per chicken
[8] = po, chickens, 50 ppm added to feed, worm count on 21st day, one value per chicken
[9] = 1000 ppm in feed, chicken No. 1
[10] = 1000 ppm in feed, chicken No. 2

C=CCNOCC(C)C [Compound D3]
inhibition in vivo at 25 ppm ([1]; feed or water, chicken, 25 ppm in feed): 80 to 90% | inhibition in vivo at 50 ppm ([1]; feed or water, chicken, 50 ppm in feed): 100% | Change of E.P.G. 7th day [2]: 0 | Change of E.P.G. Before administration [2]: 2,200 and 1,800 | anthelmintic effect [2]: marked anthelmintic effect | inhibition in vivo at 30 mg/kg [3]: 100%

C#CCN(OCC=C)C(=O)CCCCCCC/C=C\CCCCCCCC [Compound A8, N-propargyl-N-oleoyl-O-allylhydroxylamine]
inhibition in vivo at 10 ppm [1, 7]: 100% | inhibition in vivo at 50 ppm [1, 8]: 100% | Condition of fluke body [4]: dead | Presence or absence of fluke egg in fecal matter On 21st day after the last administration [4]: -

C#CCN(OCC=C)C(=O)CC [Compound A5, N-propargyl-N-propionyl-0-allylhydroxylamine]
inhibition in vivo at 10 ppm [1, 7]: 80 to 90% | inhibition in vivo at 50 ppm [1, 8]: 100% | Condition of fluke body [4]: dead | Presence or absence of fluke egg in fecal matter On 21st day after the last administration [4]: -

C#CCON(CC#C)C(=O)CC [Compound E2, N,O-dipropargyl-N-propionylhydroxylamine]
inhibition in vivo at 40 mg/kg [5]: 100% | Anthelmintic effect after one day ([5]; chicken No.2): +++ (100%) | Anthelmintic effect after one day ([5]; chicken No.3): +++ (100%) | Anthelmintic effect after one day ([5]; chicken No.4): +++ (100%) | Anthelmintic effect after one day ([5]; chicken No.5): +++ (100%) | E.P.G. after 5 days ([6]; 250 ppm in feed, chicken No. 1): 0 | anthelmintic effect ([6]; 250 ppm in feed, chicken No. 2): +++ (100%) | E.P.G. after 5 days ([6]; 250 ppm in feed, chicken No. 2): 0 | E.P.G. after 5 days [6, 9]: 0 | anthelmintic effect [6, 10]: +++ (100%) | E.P.G. after 5 days [6, 10]: 0 | inhibition in vivo at 250 ppm ([6]; 250 ppm in feed, chicken No. 1): 100% | inhibition in vivo at 1000 ppm [6, 9]: 100%

C#CCNOCCCC [Compound D12]
Change of E.P.G. 7th day [2]: 0 | Change of E.P.G. Before administration [2]: 1,600 and 2,100 | anthelmintic effect [2]: marked anthelmintic effect | inhibition in vivo at 30 mg/kg [3]: 100%

C#CCON(CC#C)C(=O)CCCC [Compound E4, N,O-dipropargyl-N-valerylhydroxylamine]
inhibition in vivo at 40 mg/kg [5]: 100% | Anthelmintic effect after one day ([5]; chicken No.2): +++ (100%) | Anthelmintic effect after one day ([5]; chicken No.3): +++ (100%) | Anthelmintic effect after one day ([5]; chicken No.4): +++ (100%) | Anthelmintic effect after one day ([5]; chicken No.5): +++ (100%) | E.P.G. after 5 days ([6]; 250 ppm in feed, chicken No. 1): 0 | anthelmintic effect ([6]; 250 ppm in feed, chicken No. 2): +++ (100%) | E.P.G. after 5 days ([6]; 250 ppm in feed, chicken No. 2): 0 | E.P.G. after 5 days [6, 9]: 0 | anthelmintic effect [6, 10]: +++ (100%) | E.P.G. after 5 days [6, 10]: 0 | inhibition in vivo at 250 ppm ([6]; 250 ppm in feed, chicken No. 1): 100% | inhibition in vivo at 1000 ppm [6, 9]: 100%

C#CCN(C=O)OCC=C [Compound A13, N-propargyl-N-formyl-0-allylhydroxylamine]
inhibition in vivo at 10 ppm [1, 7]: 80 to 90% | inhibition in vivo at 50 ppm [1, 8]: 100% | Condition of fluke body ([4]; 50 mg/kg): denatured and dead | Presence or absence of fluke egg in fecal matter On 21st day after the last administration [4]: - | inhibition in vivo at 10 mg/kg ([3]; chickens, 10 mg/Kg orally in gelatin capsule, one value per chicken (No.1-3)): 100% | inhibition in vivo at 20 mg/kg ([3]; chickens, 20 mg/Kg orally in gelatin capsule, one value per chicken (No.1-3)): 100%

C#CCON(CC#C)C(=O)c1ccccc1 [Compound E7, N,O-dipropargyl-N-benzoylhydroxylamine]
inhibition in vivo at 40 mg/kg [5]: 100% | Anthelmintic effect after one day ([5]; chicken No.2): +++ (100%) | Anthelmintic effect after one day ([5]; chicken No.3): +++ (100%) | Anthelmintic effect after one day ([5]; chicken No.4): +++ (100%) | Anthelmintic effect after one day ([5]; chicken No.5): +++ (100%) | E.P.G. after 5 days ([6]; 250 ppm in feed, chicken No. 1): 0 | anthelmintic effect ([6]; 250 ppm in feed, chicken No. 2): +++ (100%) | E.P.G. after 5 days ([6]; 250 ppm in feed, chicken No. 2): 0 | E.P.G. after 5 days [6, 9]: 0 | anthelmintic effect [6, 10]: +++ (100%) | E.P.G. after 5 days [6, 10]: 0 | inhibition in vivo at 250 ppm ([6]; 250 ppm in feed, chicken No. 1): 100% | inhibition in vivo at 1000 ppm [6, 9]: 100%

— patent publication EP0103895A2, “Novel hydroxylamine derivatives, production and use thereof” (MEIJI SEIKA KABUSHIKI KAISHA, priority 1982, dated 1984)
